# Source: publication PMC11714206, “Massively Parallel Screening of Toll/Interleukin‐1 Receptor (TIR)‐Derived Peptides Reveals Multiple Toll‐Like Receptors (TLRs)‐Targeting Immunomodulatory Peptides” (Advanced Science, 2024)
# Target: T1, MAL^TIR (Homo sapiens, UniProt P58753)
# T1 construct: MAL (residues 79–221); 6xHis; made in house; host or cells: E. coli BL21 (DE3)
# Test: T‐Surf phage library (P8 and P3) selection against MAL^TIR, four rounds, NGS read counts
# Assay type: binding
# Settings: for P8_MAL Rank (after) / P8_MAL Rank (before): P8 library; for P3_MAL Rank (after) / P3_MAL Rank (before): P3 library; for Population: 4th round of selection against MAL TIR, share of NGS reads
# How it was run: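 Read counts come from NGS of phage pools after the fourth selection round, barcoded by 20-cycle PCR and filtered for quality ≥30. Each round: phage incubated 1 h at RT on immobilised TIR protein (5 µg mL^−1, BSA-blocked), washed, HCl-eluted and amplified in E. coli TG1.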
# [1] = selection against MAL, rank after grouping
# [2] = selection against MAL, rank before grouping
# [3] = P3_MAL: rank by count after grouping
# [4] = P3_MAL: rank by count before grouping
# [5] = 4R selection against MAL, rank after grouping
# [6] = 4R selection against MAL, rank before grouping
# [7] = P8_MAL: rank by count after grouping
# [8] = P8_MAL: rank by count before grouping
# [9] = selection against MAL, rank by count after grouping
# [10] = selection against MAL, rank by count before grouping
# [11] = selection against MAL TIR, rank by count after grouping
# [12] = selection against MAL TIR, rank by count before grouping
# [13] = P3_MAL pool: P3 T-Surf phage library
# [14] = P8_MAL pool: P8 T-Surf phage library
# T1 sequence (P58753 79-221): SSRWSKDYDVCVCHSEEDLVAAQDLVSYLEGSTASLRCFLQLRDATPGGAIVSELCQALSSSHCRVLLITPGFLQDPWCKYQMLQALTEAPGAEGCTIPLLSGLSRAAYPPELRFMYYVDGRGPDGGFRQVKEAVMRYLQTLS
sequence,measurement,setting,value
DPKLNTGESIAPELLR,P8_MAL Rank (after),[1],493
same,P8_MAL Rank (before),[2],1991
YAFTGHLHRYLVQRA,Rank (after),[3],137
same,Rank (before),[4],398
WLYERLVGLILRYTKV,P8_MAL Rank (after),[5],638
same,P8_MAL Rank (before),[6],1425
AFLFTFLINLTHPSNF,Rank (after),[7],450
same,Rank (before),[8],1803
SLRKNLVRNLIEEFNR,P3_MAL Rank (after),[9],759
same,P3_MAL Rank (before),[10],3094
RGFLNQLRQHLHAKDH,P3_MAL Rank (after),[1],548
same,P3_MAL Rank (before),[2],2403
SPQEQDGFWVRLIEAL,Rank (after),[7],466
same,Rank (before),[8],2527
ALHNAFWDRLWTKLAP,P3_MAL Rank (after),[1],544
same,P3_MAL Rank (before),[2],1842
ALLYPFLINLTHPTHF,P8_MAL Rank (after),[1],522
same,P8_MAL Rank (before),[2],1957
GFFERLVRMILRDTKV,P8_MAL Rank (after),[11],263
same,P8_MAL Rank (before),[12],1567
WFYERLVNLILRDTIV,P8_MAL Rank (after),[5],668
same,P8_MAL Rank (before),[6],1241
AFFRDQLRTVLGKPTM,P8_MAL Rank (after),[5],609
same,P8_MAL Rank (before),[6],1751
AFLWTQLKSLLRNTTM,P8_MAL Rank (after),[1],534
same,P8_MAL Rank (before),[2],1765
LFFWESLKQLLGNPTM,Rank (after),[7],177
same,Rank (before),[8],909
YAFTGHLRRYMVQRGV,P3_MAL Rank (after),[1],517
same,P3_MAL Rank (before),[2],1370
AFLCTHLKNLIHKTTI,Rank (after),[7],415
same,Rank (before),[8],1755
NQRRNAVTAAAKLSGC,Rank (after),[3],469
same,Rank (before),[4],3476
HLLKKPRNKRISPFIA,P3_MAL Rank (after),[9],692
same,P3_MAL Rank (before),[10],2803
WFYERLVCLILRDIKV,Rank (after),[7],465
same,Rank (before),[8],1171
LFLWECLKQLLRSDGR,P8_MAL Rank (after),[1],507
same,P8_MAL Rank (before),[2],2144
YAFTSSLHRYLVQRGV,P3_MAL Rank (after),[5],592
same,P3_MAL Rank (before),[6],1481
AVRYTILINLTHTTNF,Rank (after),[7],462
same,Rank (before),[8],1955
NQAFWNRLWAKLKPLT,P3_MAL Rank (after),[5],631
same,P3_MAL Rank (before),[6],3431
ALPYTFLINLTHPTTF,P8_MAL Rank (after),[1],503
same,P8_MAL Rank (before),[2],1961
SSFREGLWRLLDLSKQ,P3_MAL Rank (after),[9],732
same,P3_MAL Rank (before),[10],3144
AFLWTQLKSVLGNPTM,P8_MAL Rank (after),[11],242
same,P8_MAL Rank (before),[12],1764
RGFLSHLSHPLQAKDP,P3_MAL Rank (after),[5],585
same,P3_MAL Rank (before),[6],2391
AFFCEQLRTVIGKPTI,Rank (after),[7],414
same,Rank (before),[8],1587
YAFTGYLHRYVVQRGV,P3_MAL Rank (after),[1],519
same,P3_MAL Rank (before),[2],1355
HPKGSYREALAEHEKR,P3_MAL Rank (after),[1],503
same,P3_MAL Rank (before),[2],2809
WFYERMVSLILRDTKL,Rank (after),[7],136
same,Rank (before),[8],1262
LFLWDSLKQPLRSDGR,P8_MAL Rank (after),[11],224
same,P8_MAL Rank (before),[12],2143
LFFWESLKKLLRSAGR,P8_MAL Rank (after),[1],531
same,P8_MAL Rank (before),[2],2114
AFFWAQQKSVLGDPTM,P8_MAL Rank (after),[9],722
same,P8_MAL Rank (before),[10],1646
AFLYTFLINLTHLPNF,Rank (after),[7],95
same,Rank (before),[8],1842
DIQSSRLKDDADLVGQ,P3_MAL Rank (after),[5],655
same,P3_MAL Rank (before),[6],1960
FISHLYAALQRKHVET,Rank (after),[3],96
same,Rank (before),[4],96
RLLKWKEALHQFHSWV,Population,[13],0.00451%
same,Rank (after),[7],115
same,Rank (before),[8],655
AFLYTFLINLTHPTNS,Population,[14],0.0034%
PNLRTKVMNYLIRTKP,P3_MAL Rank (after),[5],643
same,P3_MAL Rank (before),[6],2733
DSHSSRFKEDAELGGQ,P3_MAL Rank (after),[9],687
same,P3_MAL Rank (before),[10],1963
PNLRTKVLNYLMRIKT,Population,[13],0.00413%
SFFWNKLRYHLQAKDH,P3_MAL Rank (after),[1],572
same,P3_MAL Rank (before),[2],3010
AFLYAFLISLTHTTTF,P8_MAL Rank (after),[1],571
same,P8_MAL Rank (before),[2],1798
RSFVAYLFQALANKGI,Population,[14],0.0034%
LFFWESLKQRLRSDVR,P8_MAL Rank (after),[11],193
same,P8_MAL Rank (before),[12],2118
YFLHSLLISLTDPAYI,Rank (after),[7],452
same,Rank (before),[8],1510
RLLKWKEALHHVLQK,P3_MAL Rank (after),[9],690
same,P3_MAL Rank (before),[10],2502
DWIREQLRPALKKRLP,P3_MAL Rank (after),[1],520
same,P3_MAL Rank (before),[2],1989
DSLFWDRLLYSLHVTE,Rank (after),[7],157
same,Rank (before),[8],877
RYIMPHPQELIQKNS,Rank (after),[3],389
same,Rank (before),[4],2337
RGFLSHLHRYLVQRGV,Rank (after),[3],109
same,Rank (before),[4],250
LFFWESLKNVLGSDGR,Rank (after),[7],431
same,Rank (before),[8],2115
ARFKDMIINKWRTALTQAAN,P3_MAL Rank (after),[1],513
same,P3_MAL Rank (before),[2],1847
LKWGDPYFLEQTALCD,P3_MAL Rank (after),[9],771
same,P3_MAL Rank (before),[10],2208
LKVESWRRAPEKAGKL,Rank (after),[3],457
same,Rank (before),[4],2263
YAFTGHLHRYLVQRGA,Population,[13],0.00338%
PNLRTQVQNYLLPNKT,P3_MAL Rank (after),[1],524
same,P3_MAL Rank (before),[2],2686
YLNSGYPWRYDRLRFA,P3_MAL Rank (after),[9],750
same,P3_MAL Rank (before),[10],1498
RNNLMDRLYQALDLLR,P8_MAL Rank (after),[1],545
same,P8_MAL Rank (before),[2],2298
AFLYTFLINLTHPNNF,Population,[14],0.00463%
RLLNWKEALHQFHSWV,Population,[13],0.00338%
NQCTDALTAAVVLSGW,P3_MAL Rank (after),[1],528
same,P3_MAL Rank (before),[2],3330
DWFLSKLSQHLLKRAK,P3_MAL Rank (after),[9],682
same,P3_MAL Rank (before),[10],1882
NQWRNALTAEAKLSGW,P3_MAL Rank (after),[11],268
same,P3_MAL Rank (before),[12],3414
AFFWAQLKSVLGNLTK,Rank (after),[7],399
same,Rank (before),[8],1623
AFLYSLLFNRTHPNYF,P8_MAL Rank (after),[9],702
same,P8_MAL Rank (before),[10],1809
RGFLSHLRHHLPAKDQ,P3_MAL Rank (after),[1],498
same,P3_MAL Rank (before),[2],2380
WFLFTVRSAIYAMDQVADT,Rank (after),[7],459
same,Rank (before),[8],1324
SLLKYKEALPQFHSWL,P3_MAL Rank (after),[5],586
same,P3_MAL Rank (before),[6],2982
AFLYAFLINLTHPTNI,Rank (after),[7],142
same,Rank (before),[8],1812
RLLKWKEALHQFQTWL,P3_MAL Rank (after),[9],701
same,P3_MAL Rank (before),[10],2516
RLMKWKEALHPFHSWV,Rank (after),[3],180
same,Rank (before),[4],2553
ALCWAQLKIVLANLPI,P8_MAL Rank (after),[11],271
same,P8_MAL Rank (before),[12],1926
LFFWEILKQLLRSAGR,Rank (after),[7],454
same,Rank (before),[8],2074
AFLYTFLINLTIRPIX,Population,[14],0.00371%
KNLFHELVIKNIRTFM,P3_MAL Rank (after),[9],696
same,P3_MAL Rank (before),[10],3747
AFFWAQLKSVLGNPTL,Population,[14],0.00309%
KMQKWKDALTKVASL,P3_MAL Rank (after),[5],673
same,P3_MAL Rank (before),[6],3697
LVAHGISNKLKIFATI,Rank (after),[3],387
same,Rank (before),[4],2092
KTLAGLLYDHLFRLRL,Population,[13],0.0233%
same,Rank (after),[3],101
same,Rank (before),[4],102
TFLDRLYNPLVHAGIH,Rank (after),[7],400
same,Rank (before),[8],2621
GWFLNKLSQLILKKEK,Population,[13],0.03%
same,Rank (after),[3],100
same,Rank (before),[4],100
SLRKKLVRNLIEEFKR,P3_MAL Rank (after),[9],688
same,P3_MAL Rank (before),[10],3100
MSQRYQGLKNRGIFTF,P3_MAL Rank (after),[5],663
same,P3_MAL Rank (before),[6],2959
HQAFWDRLWAKLKAPI,P8_MAL Rank (after),[1],546
same,P8_MAL Rank (before),[2],2337
MRLPAICNVIWCSVA,Rank (after),[3],388
same,Rank (before),[4],2938
PNLRTNVLNYLMRPKT,P3_MAL Rank (after),[11],266
same,P3_MAL Rank (before),[12],2696
WFYERMVSMILRDTKV,P8_MAL Rank (after),[11],280
same,P8_MAL Rank (before),[12],1261
WFYEPLVSVILPDTKV,P8_MAL Rank (after),[1],561
same,P8_MAL Rank (before),[2],1292
TFLAICIMRWCRRAF,Rank (after),[7],99
same,Rank (before),[8],718
AFLDPFLINLIQASIL,P8_MAL Rank (after),[5],616
same,P8_MAL Rank (before),[6],1968
AFQYTFLFNLTHPTNF,Rank (after),[7],125
same,Rank (before),[8],1920
PNLRTKVLNYLILTKT,Rank (after),[3],190
same,Rank (before),[4],2747
HFFWVKLKSILGETSL,P8_MAL Rank (after),[5],592
same,P8_MAL Rank (before),[6],2396
RGFLSHLRYHLPAPQH,Rank (after),[3],129
same,Rank (before),[4],333
WFYERLVSLIRRDIKV,P8_MAL Rank (after),[9],694
same,P8_MAL Rank (before),[10],1219
SLFCNKLRYHLPAPQH,P3_MAL Rank (after),[11],214
same,P3_MAL Rank (before),[12],3027
PDKDKGGENAFINNIV,P3_MAL Rank (after),[1],488
same,P3_MAL Rank (before),[2],2636
WFYEHLVSLILRDTKV,Population,[14],0.00371%
HHTGSYGQALAEHEKR,P3_MAL Rank (after),[5],584
same,P3_MAL Rank (before),[6],2814
SLFLSSRFKDDADLVGQ,Rank (after),[3],433
same,Rank (before),[4],3057
SSFREGLWRLLELRQK,P3_MAL Rank (after),[11],276
same,P3_MAL Rank (before),[12],3147
RNLGAYLFQALANKGI,P8_MAL Rank (after),[11],254
same,P8_MAL Rank (before),[12],2246
